Experiments:
[1] = biological target: T1, human EGF-R (Homo sapiens, UniProt P00533); assay: Inhibition of EGF-dependent proliferation of F/L-HERc cells; assay type: cell-based; settings: F/L-HERc cells (murine IL-3-dependent line expressing human EGF-R), stimulated with EGF 20 ng/ml, 48 hours, Cell Titer 96 AQueous assay
T1 construct: expressed in transfected cells; host or cells: F/L-HERc cells (murine IL-3-dependent FDC-P1 line transduced with retroviral vector LXSN carrying human EGF-R cDNA; packaging line GP+E86)
T1 sequence (P00533 25-1210): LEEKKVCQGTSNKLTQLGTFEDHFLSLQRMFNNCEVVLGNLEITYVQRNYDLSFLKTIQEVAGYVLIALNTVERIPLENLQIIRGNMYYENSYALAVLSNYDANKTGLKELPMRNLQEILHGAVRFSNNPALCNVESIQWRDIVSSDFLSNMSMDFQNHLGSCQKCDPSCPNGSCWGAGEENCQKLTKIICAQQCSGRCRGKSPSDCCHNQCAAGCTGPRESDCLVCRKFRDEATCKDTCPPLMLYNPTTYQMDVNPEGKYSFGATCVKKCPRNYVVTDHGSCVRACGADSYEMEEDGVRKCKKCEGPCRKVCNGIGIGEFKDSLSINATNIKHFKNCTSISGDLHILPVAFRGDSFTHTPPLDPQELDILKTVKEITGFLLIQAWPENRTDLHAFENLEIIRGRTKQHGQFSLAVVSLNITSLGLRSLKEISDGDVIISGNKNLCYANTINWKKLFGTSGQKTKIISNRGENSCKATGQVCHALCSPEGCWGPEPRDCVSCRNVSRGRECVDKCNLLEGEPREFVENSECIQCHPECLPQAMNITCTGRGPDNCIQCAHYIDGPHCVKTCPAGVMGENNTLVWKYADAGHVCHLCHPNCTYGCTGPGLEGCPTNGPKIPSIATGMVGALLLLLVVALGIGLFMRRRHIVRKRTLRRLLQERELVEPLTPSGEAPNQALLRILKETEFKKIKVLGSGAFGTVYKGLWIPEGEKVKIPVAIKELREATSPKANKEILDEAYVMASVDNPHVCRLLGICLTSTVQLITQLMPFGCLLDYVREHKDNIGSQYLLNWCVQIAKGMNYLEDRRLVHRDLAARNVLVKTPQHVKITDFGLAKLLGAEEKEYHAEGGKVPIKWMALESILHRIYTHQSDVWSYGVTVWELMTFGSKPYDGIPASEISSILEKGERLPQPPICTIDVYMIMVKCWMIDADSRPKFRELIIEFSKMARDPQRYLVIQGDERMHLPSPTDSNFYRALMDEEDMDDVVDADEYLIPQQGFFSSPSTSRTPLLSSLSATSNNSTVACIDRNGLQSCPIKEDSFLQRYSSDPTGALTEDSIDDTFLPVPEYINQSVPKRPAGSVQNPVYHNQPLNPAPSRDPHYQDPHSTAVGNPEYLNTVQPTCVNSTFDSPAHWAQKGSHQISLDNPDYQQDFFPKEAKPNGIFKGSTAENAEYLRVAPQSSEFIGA
Description: A cell line of murine origin dependent on interleukin-3-(IL-3) which was genetically modified to express functional human EGF-R was used here. The proliferation of these cells known as F/L-HERc can therefore be stimulated either by murine IL-3 or by EGF (cf. T. von Rüiden et al. in EMBO J. 7, 2749-2756 (1988) and J. H. Pierce et al. in Science 239, 628-631 (1988)).
The starting material used for the F/L-HERc cells was the cell line FDC-P1, the production of which has been described by T. M. Dexter et al., J. Exp. Med. 152 1036-1047 (1980). Alternatively, however, other growth-factor-dependent cells may also be used (cf., e.g., J. H. Pierce et al., Science 239, 628-631 (1988); H. Shibuya et al., Cell 70, 57-67 (1992); and W. S. Alexander et al., EMBO J. 10, 3683-3691 (1991)). For expressing the human EGF-R cDNA (cf. A. Ullrich et al., Nature 309, 418-425 (1984)) recombinant retroviruses were used as described by T. von Rüiden et al., EMBO J. 7, 2749-2756 (1988), except that the retroviral vector LXSN (cf. A. D. Miller et al., BioTechniques 7, 980-990 (1989)) was used for the expression of the EGF-R cDNA and the line GP+E86 (cf. D. Markowitz et al., J. Virol. 62, 1120-1124 (1988)) was used as the packaging cell.
F/L-HERc cells were cultivated in RPMI/1640 medium (BioWhittaker), supplemented with 10% fetal calf serum (FCS, Boehringer Mannheim), 2 mM glutamine (BioWhittaker), standard antibiotics and 20 ng/ml of human EGF (Promega), at 37° C. and 5% CO2. In order to investigate the inhibitory activity of the compounds according to the invention, 1.5×10^4 cells per well were cultivated in triplicate in 96-well dishes in the above medium (200 μl), the cell proliferation being stimulated with either EGF (20 ng/ml) or murine IL-3. The IL-3 used was obtained from culture supernatants of the cell line X63/0 mIL-3 (cf. H. Karasuyama et al., Eur. J. Immunol. 18, 97-104 (1988)). The compounds according to the invention were dissolved in 100% dimethylsulfoxide (DMSO) and added to the cultures in various dilutions, the maximum DMSO concentration being 1%. The cultures were incubated for 48 hours at 37° C.
In order to determine the inhibitory activity of the compounds according to the invention the relative cell number was measured in O.D. units using the Cell Titer 96™ AQueous Non-Radioactive Cell Proliferation Assay (Promega). The relative cell number was calculated as a percentage of the control (F/LHERc cells without inhibitor) and the concentration of active substance which inhibits the proliferation of the cells by 50% (IC50) was derived therefrom.

SMILES | IC50 [1] [nM] | melting point [°C]
O=C(C=CCN1CCN2CC(=O)OCC2C1)Nc1cc2c(Nc3ccc(F)c(Cl)c3)ncnc2cc1OCC1CC1 (stereo not drawn) [4(3), 4-[(3-chloro-4-fluorophenyl)amino]-6-{[4-(3-oxoperhydropyrazino[2,1-c][1,4]oxazin-8-yl)-1-oxo-2-buten-1-yl]amino}-7-cyclopropylmethoxyquinazoline] | 10 | –
O=C(C=CCN1CCN(C2CCOC2=O)CC1)Nc1cc2c(Nc3ccc(F)c(Cl)c3)ncnc2cc1OCC1CC1 (stereo not drawn) [Example 1, 4-[(3-chloro-4-fluorophenyl)amino]-6-({4-[4-(2-oxotetrahydrofuran-3-yl)piperazin-1yl]-1-oxo-2-buten-1-yl}amino)-7-cyclopropylmethoxyquinazoline] | 0.05 | 130 to 131
O=C(C=CCN1CCN(CCSC2CCOC2=O)CC1)Nc1cc2c(Nc3ccc(F)c(Cl)c3)ncnc2cc1OCC1CC1 (stereo not drawn) [Example 4, 4-[(3-chloro-4-fluorophenyl)amino]-6-{[4-(4-{2-[(2-oxotetrahydrofuran-3-yl)sulfanyl]ethyl}piperazin-1-yl)-1-oxo-2-buten-1-yl]amino}-7-cyclopropylmethoxyquinazoline] | 3 | –

The next lines start with the values.

IC50 [1] [nM] | melting point [°C] | SMILES
0.6 | – | O=C(C=CCN1CCN(C2COC(=O)C2)CC1)Nc1cc2c(Nc3ccc(F)c(Cl)c3)ncnc2cc1OCC1CC1 (stereo not drawn) [Example 2, 4-[(3-chloro-4-fluorophenyl)amino]-6-({4-[4-(2-oxotetrahydrofuran-4-yl)piperazin-1-yl]-1-oxo-2-buten-1-yl}amino)-7-cyclopropylmethoxyquinazoline]
– | 155 to 157 | O=C(C=CCN1CCN(C(=O)[C@@H]2CCC(=O)O2)CC1)Nc1cc2c(Nc3ccc(F)c(Cl)c3)ncnc2cc1OCC1CC1 [Example 3, (S)-4-[(3-chloro-4-fluorophenyl)amino]-6-[(4-{4-[(5-oxotetrahydrofuran-2-yl)carbonyl]piperazin-1-yl}-1-oxo-2-buten-1-yl)amino]-7-cyclopropylmethoxyquinazoline]

Reference: patent US6627634B2, “Bicyclic heterocycles, pharmaceutical compositions containing them, their use, and processes for preparing them” (Boehringer Ingelheim Pharma KG, priority 2000, dated 2003)
